In the supplement of paper PMC11061612:

Legend:
[1] = test system: BT-474 (Breast Carcinoma); experiment: combination Emax (second highest fraction inhibited in the dose matrix, 72 h); higher = more inhibition; extreme values may be limits of the assay
Outline: (§1)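 Bliss excess equals the observed combination effect minus the expected value EA + EB − EA·EB, where EA and EB are the effects of each agent alone. Combination Emax is the second-highest inhibition within the matrix. Inhibition was scaled from CellTiter-Glo 2.0 luminescence, with 0 set by vehicle wells and 1 by blank wells, after 72 hours of two-drug dosing of cells plated in 1536-well plates.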

[2] = test system: NTERA-2-cl-D1 (Other Solid Carcinomas); experiment: as above
Outline: as §1

[3] = test system: NCI-H1944 (Lung Adenocarcinoma); experiment: as above
Outline: as §1

[4] = test system: RS4-11 (B-Lymphoblastic Leukemia); experiment: as above
Outline: as §1

GCIY (Gastric Carcinoma) = experiment: as above
Outline: as §1

[5] = test system: SW1463 (Colorectal Carcinoma); experiment: as above
Outline: as §1

[6] = test system: TK (B-Cell Non-Hodgkin's Lymphoma); experiment: as above
Outline: as §1

[7] = test system: OVKATE (Ovarian Carcinoma); experiment: as above
Outline: as §1

[8] = test system: NCI-H2023 (Non-Small Cell Lung Carcinoma); experiment: as above
Outline: as §1

[9] = test system: NCI-H1048 (Small Cell Lung Carcinoma); experiment: as above
Outline: as §1

[10] = test system: SBC-3 (Small Cell Lung Carcinoma); experiment: as above
Outline: as §1

[11] = test system: SUP-HD1 (Hodgkin's Lymphoma); experiment: as above
Outline: as §1

[12] = test system: RPMI-8402 (T-Lymphoblastic Leukemia); experiment: Bliss excess, mean over the matrix (fraction); higher = more synergy
Outline: as §1

[13] = test system: MRK-nu-1 (Breast Carcinoma); experiment: as above
Outline: as §1

[14] = test system: HT-1197 (Bladder Carcinoma); experiment: as above
Outline: as §1

NCI-H2452 (Mesothelioma) = experiment: as above
Outline: as §1

[15] = test system: SBC-5 (Small Cell Lung Carcinoma); experiment: as above
Outline: as §1

[16] = test system: SCC90 (Head and Neck Carcinoma); experiment: as above
Outline: as §1

[17] = test system: NCI-H2023 (Non-Small Cell Lung Carcinoma); experiment: as above
Outline: as §1

A375 (Melanoma) = experiment: as above
Outline: as §1

Cn1cnc2c(F)c(Nc3ccc(Br)cc3Cl)c(C(=O)NOCCO)cc21 [Selumetinib] + CC(C)n1c(=O)n(C)c2cnc3cc(F)c(-c4ccc(OCCCN5CCCCC5)nc4)cc3c21 [AZD1390] (first compound max 10 µM, 7x7, partner max 0.3 µM)
combination Emax [1]: 0.0709 | combination Emax [2]: 0.235 | combination Emax [3]: 0.285 | combination Emax [4]: 0.0431 | combination Emax (GCIY (Gastric Carcinoma)): 0.396 | combination Emax [5]: 0.702 | combination Emax [6]: 0.177 | combination Emax [7]: 0.179 | combination Emax [8]: 0.161 | combination Emax [9]: 0.101 | combination Emax [10]: 0.152 | combination Emax [11]: 0.224 | Bliss excess [12]: -0.039 | Bliss excess [13]: 0.0225 | Bliss excess [14]: -0.0565 | Bliss excess (NCI-H2452 (Mesothelioma)): -0.0732 | Bliss excess [15]: -0.0404 | Bliss excess [16]: 0.0124 | Bliss excess [17]: -0.0292 | Bliss excess (A375 (Melanoma)): -0.0271

COc1nnc2ccc(N3CCC(c4ccc(OCCN5CCN(C)C(=O)[C@H]5C)cc4)CC3)nn12 [AZD5153] + CC1(C)CCC(CN2CCN(c3ccc(C(=O)NS(=O)(=O)c4ccc(NCC5CCOCC5)c([N+](=O)[O-])c4)c(Oc4cnc5[nH]ccc5c4)c3)CC2)=C(c2ccc(Cl)cc2)C1 [Venetoclax] (first compound max 1 µM, 7x7, partner max 1 µM)
combination Emax [1]: 0.353 | combination Emax [2]: 0.654 | combination Emax [3]: 0.566 | combination Emax [4]: 1 | combination Emax (GCIY (Gastric Carcinoma)): 0.505 | combination Emax [5]: 0.581 | combination Emax [6]: 0.994 | combination Emax [7]: 0.35 | combination Emax [8]: 0.378 | combination Emax [9]: 0.492 | combination Emax [10]: 0.721 | combination Emax [11]: 0.955 | Bliss excess [12]: 0.0135 | Bliss excess [13]: -0.0537 | Bliss excess [14]: -0.0708 | Bliss excess (NCI-H2452 (Mesothelioma)): 0.0059 | Bliss excess [15]: -0.0579 | Bliss excess [16]: 0.0009 | Bliss excess [17]: -0.0832 | Bliss excess (A375 (Melanoma)): -0.057

COc1nnc2ccc(N3CCC(c4ccc(OCCN5CCN(C)C(=O)[C@H]5C)cc4)CC3)nn12 [AZD5153] + Cn1cnc2c(F)c(Nc3ccc(Br)cc3Cl)c(C(=O)NOCCO)cc21 [Selumetinib] (first compound max 1 µM, 7x7, partner max 10 µM)
combination Emax [1]: 0.385 | combination Emax [2]: 0.712 | combination Emax [3]: 0.717 | combination Emax [4]: 0.593 | combination Emax (GCIY (Gastric Carcinoma)): 0.598 | combination Emax [5]: 0.732 | combination Emax [6]: 0.232 | combination Emax [7]: 0.26 | combination Emax [8]: 0.316 | combination Emax [9]: 0.449 | combination Emax [10]: 0.699 | combination Emax [11]: 0.752 | Bliss excess [12]: -0.0608 | Bliss excess [13]: -0.0169 | Bliss excess [14]: 0.108 | Bliss excess (NCI-H2452 (Mesothelioma)): -0.029 | Bliss excess [15]: 0.001 | Bliss excess [16]: 0.098 | Bliss excess [17]: -0.0158 | Bliss excess (A375 (Melanoma)): 0.0241

CC(=O)Nc1cccc(-n2c(=O)n(C3CC3)c(=O)c3c(Nc4ccc(I)cc4F)n(C)c(=O)c(C)c32)c1 [Trametinib] + Cc1nc(-c2cn3c(n2)-c2ccc(-c4cnn(C(C)(C)C(N)=O)c4)cc2OCC3)n(C(C)C)n1 [Taselisib] (first compound max 1 µM, 7x7, partner max 10 µM)
combination Emax [1]: 0.841 | combination Emax [2]: 0.666 | combination Emax [3]: 0.985 | combination Emax [4]: 0.35 | combination Emax (GCIY (Gastric Carcinoma)): 0.99 | combination Emax [5]: 0.785 | combination Emax [6]: 0.169 | combination Emax [7]: 0.583 | combination Emax [8]: 0.769 | combination Emax [9]: 1 | combination Emax [10]: 0.703 | combination Emax [11]: 0.616 | Bliss excess [12]: 0.0185 | Bliss excess [13]: 0.0116 | Bliss excess [14]: 0.105 | Bliss excess (NCI-H2452 (Mesothelioma)): 0.101 | Bliss excess [15]: 0.192 | Bliss excess [16]: 0.0348 | Bliss excess [17]: 0.0549 | Bliss excess (A375 (Melanoma)): 0.0783

NC1(C(=O)N[C@@H](CCO)c2ccc(Cl)cc2)CCN(c2ncnc3[nH]ccc23)CC1 [Capivasertib] + CC(C)n1c(=O)n(C)c2cnc3cc(F)c(-c4ccc(OCCCN5CCCCC5)nc4)cc3c21 [AZD1390] (first compound max 10 µM, 7x7, partner max 0.3 µM)
combination Emax [1]: 0.299 | combination Emax [2]: 0.312 | combination Emax [3]: 0.429 | combination Emax [4]: 0.32 | combination Emax (GCIY (Gastric Carcinoma)): 0.397 | combination Emax [5]: 0.237 | combination Emax [6]: 0.162 | combination Emax [7]: 0.247 | combination Emax [8]: 0.409 | combination Emax [9]: 0.439 | combination Emax [10]: 0.374 | combination Emax [11]: 0.473 | Bliss excess [12]: -0.0456 | Bliss excess [13]: -0.0985 | Bliss excess [14]: -0.0388 | Bliss excess (NCI-H2452 (Mesothelioma)): -0.0922 | Bliss excess [15]: -0.0792 | Bliss excess [16]: -0.0484 | Bliss excess [17]: -0.0587 | Bliss excess (A375 (Melanoma)): -0.0496

Cc1c2c(nn1C)CSCc1cc(n(C)n1)CSc1cc(c3ccccc3c1)OCCCc1c(C(=O)O)n(C)c3c-2c(Cl)ccc13 [AZD5991] + CN(C)CCCOc1ccc(-c2ccc3ncc4c(c3c2)n(C2CCOCC2)c(=O)n4C)cn1 [AZD0156] (first compound max 1 µM, 7x7, partner max 1 µM)
combination Emax [1]: 0.306 | combination Emax [2]: 0.589 | combination Emax [3]: 0.259 | combination Emax [4]: 0.565 | combination Emax (GCIY (Gastric Carcinoma)): 0.465 | combination Emax [5]: 0.204 | combination Emax [6]: 0.313 | combination Emax [7]: 0.247 | combination Emax [8]: 0.426 | combination Emax [9]: 0.984 | combination Emax [10]: 0.292 | combination Emax [11]: 0.617 | Bliss excess [12]: -0.0536 | Bliss excess [13]: -0.028 | Bliss excess [14]: -0.0357 | Bliss excess (NCI-H2452 (Mesothelioma)): 0.0366 | Bliss excess [15]: 0.0387 | Bliss excess [16]: 0.0172 | Bliss excess [17]: -0.0069 | Bliss excess (A375 (Melanoma)): 0.0053

CN(CCO)CC[C@H](CSc1ccccc1)Nc1ccc(S(=O)(=O)NC(=O)c2ccc(N3CCC([C@@H](O)c4ccccc4-c4ccc(Cl)cc4)CC3)cc2)cc1S(=O)(=O)C(F)(F)F [AZD4320] + Cn1cnc2c(F)c(Nc3ccc(Br)cc3Cl)c(C(=O)NOCCO)cc21 [Selumetinib] (first compound max 1 µM, 7x7, partner max 3 µM)
combination Emax [1]: 0.282 | combination Emax [2]: 0.987 | combination Emax [3]: 0.702 | combination Emax [4]: 1 | combination Emax (GCIY (Gastric Carcinoma)): 0.658 | combination Emax [5]: 0.534 | combination Emax [6]: 0.987 | combination Emax [7]: 0.501 | combination Emax [8]: 0.268 | combination Emax [9]: 0.992 | combination Emax [10]: 0.981 | combination Emax [11]: 0.983 | Bliss excess [12]: -0.0351 | Bliss excess [13]: -0.0013 | Bliss excess [14]: 0.0079 | Bliss excess (NCI-H2452 (Mesothelioma)): -0.0688 | Bliss excess [15]: 0.0547 | Bliss excess [16]: 0.144 | Bliss excess [17]: 0.0178 | Bliss excess (A375 (Melanoma)): -0.0112
